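Grown in 96-well plates, cells were treated for 48 hours with each compound at five concentrations. Insufficient inhibition: endpoint recorded as highest concentration tested. The concentration for 50% growth inhibition is given as GI50.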 Calls of active or inactive are those of the source. Cut-off read from the data, not from the text of the source: active = GI50 up to about 1.1 µM and inactive = higher.

Common to all, as to test: growth of human tumour cells (NCI), 48 h
Assay [1] has as its system 786-0.
Assay [2] has as its system A498.
Assay [3] relates to COLO 205.
Assay [4] deals with UO-31.
For assay [5], the system named is OVCAR-5.
The subject of assay [6] is SF-268.
Assay [7] has as its system OVCAR-3.
Assay [8] concerns CAKI-1.
The test system of assay [9] is IGROV-1.
Assay [10] concerns HCT-15.
In assay [11] the test system is U-251.
In assay [12] the test system is OVCAR-8.
In assay [13] the test system is SN12C.
The subject of assay [14] is HCT-116.
In assay [15] the test system is MDA-MB-435.
Assay [16] concerns HOP-62.
The subject of assay [17] is EKVX.
Assay [18] has as its system CCRF-CEM.
In assay [19] the test system is NCI/ADR-RES.
The subject of assay [20] is Malme-3M.

With `COC(=O)CC[N+]1=CCC(c2ccccc2)(c2ccccc2)O1`, the GI50 in assay [1], in assay [2], in assay [3], in assay [4], in assay [5] and in assay [6] was > 100 µM (inactive) throughout. In addition, the GI50 in [7] is > 100 µM (inactive); in assay [8], > 100 µM (inactive); in assay [9], > 100 µM (inactive); in assay [10], greater than 100 µM; in assay [11], > 100 µM (inactive); in assay [12], > 100 µM (inactive). Moreover, the GI50 is > 100 µM (inactive) in [13]; > 100 µM (inactive) in [14]; 41.8 µM (inactive) in assay [15]; > 100 µM (inactive) in assay [16]; > 100 µM (inactive) in [17].
`C=C(C)C(=O)OC1CCC2(C)C(CCC3C2CCC2(C)C(c4ccc(=O)oc4)CC4OC432)C1` (stereo unspecified): the GI50 in [2] was 5.02 µM (inactive); in [3], 8.18 µM (inactive); in [4] it was 4.75 µM (inactive); in [5], 30.4 µM (inactive); in [6], 5.31 µM (inactive); in assay [7] it was 4.57 µM (inactive). Moreover, the GI50 is 4.07 µM (inactive) in assay [8]; 6.75 µM (inactive) in assay [9]; 6.78 µM in [10]; 3.26 µM (inactive) in [18]; 6.73 µM (inactive) in assay [11]; 5.51 µM (inactive) in assay [12]. In addition, the GI50 in assay [13] is 3.61 µM (inactive); in assay [14], 2.75 µM (inactive); in assay [19] it was 6.46 µM (inactive); in assay [20] it was 8.13 µM (inactive); in [16], 3.31 µM (inactive); in [17], 2.42 µM (inactive).
With `CCOc1ncn(-c2ccc(NC(=S)Nc3cnccn3)cc2)n1`, the GI50 in assay [1], in assay [4], in [5], in [6], in assay [7] and in [9] was > 10 µM (inactive) in each case. The GI50 is greater than 10 µM in assay [10]; > 10 µM (inactive) in assay [18]; > 10 µM (inactive) in [11]; > 10 µM (inactive) in assay [12]; > 10 µM (inactive) in assay [13]; > 10 µM (inactive) in assay [19]. For the same molecule, the GI50 in assay [20], in assay [15] and in assay [17] was > 10 µM (inactive) each time.
Consider `Cc1ccc(OCC2OC(n3cnc4nc(Nc5ccc(Cl)c(Cl)c5)nc(Cl)c43)CC2Oc2ccc(C)cc2)cc1` (stereo unspecified), for which the GI50 in [1], in assay [3], in assay [4], in [5], in assay [6] and in [7] was > 100 µM (inactive) in each case. For the same molecule, the GI50 is > 100 µM (inactive) in assay [8]; 0.855 µM (active) in assay [9]; greater than 100 µM in [10]; > 100 µM (inactive) in assay [18]; > 100 µM (inactive) in [11]; > 100 µM (inactive) in [12]. In addition, the GI50 in assay [13], in [14], in [19], in assay [20], in assay [15] and in assay [16] was > 100 µM (inactive) in each case. Moreover, the GI50 in assay [17] is 53.7 µM (inactive).
As for `Cc1ccc(O)c(-c2cc(-c3cccc(Br)c3)c(C#N)c(N)n2)c1`, the GI50 in [1] was 34.4 µM (inactive); in assay [3] it was 18.5 µM (inactive); in assay [4] it was 20.4 µM (inactive); in assay [5], 41.5 µM (inactive); in assay [6], 26.4 µM (inactive); in assay [7] it was 27.6 µM (inactive). In addition, the GI50 is 21.8 µM (inactive) in assay [8]; 11.7 µM (inactive) in assay [9]; 12.9 µM in assay [10]; 17.3 µM (inactive) in assay [11]; 32.3 µM (inactive) in assay [12]; 21.5 µM (inactive) in [13]. In addition, the GI50 was 20 µM (inactive) in assay [14]; 45.9 µM (inactive) in assay [19]; 23.5 µM (inactive) in [20]; 16.3 µM (inactive) in assay [15]; 34.6 µM (inactive) in assay [16]; 14.8 µM (inactive) in assay [17].
Regarding `CN1B(c2ccccc2)N(C)C(=O)N(C)C1=O`, the GI50 was > 100 µM (inactive) in [1]; > 100 µM (inactive) in assay [3]; 20.5 µM (inactive) in assay [4]; > 100 µM (inactive) in assay [5]; > 100 µM (inactive) in assay [6]; 52.2 µM (inactive) in assay [8]. Moreover, the GI50 in assay [9] is > 100 µM (inactive); in assay [10] it was greater than 100 µM; in [18] it was > 100 µM (inactive); in assay [11], > 100 µM (inactive); in assay [12] it was > 100 µM (inactive); in assay [13], > 100 µM (inactive). In addition, the GI50 in assay [14], in assay [19], in assay [20], in [15] and in assay [17] was > 100 µM (inactive) each time.
Consider `C=CCCCCCCCCC(=O)O` [UNDECYLENIC ACID], for which the GI50 in assay [2] is 0.798 µM (active); in [3], 41.3 µM (inactive); in assay [4], 80.7 µM (inactive); in assay [5], 145 µM (inactive); in assay [6], 91 µM (inactive); in assay [7], 67 µM (inactive). Moreover, the GI50 is 106 µM (inactive) in assay [8]; 113 µM (inactive) in assay [9]; 76.6 µM in assay [10]; 128 µM (inactive) in assay [18]; 112 µM (inactive) in [11]; 121 µM (inactive) in assay [12]. Besides, the GI50 in assay [13] was 149 µM (inactive); in [14] it was 110 µM (inactive); in [19], 172 µM (inactive); in [20], 142 µM (inactive); in [16] it was 105 µM (inactive); in assay [17], 116 µM (inactive).
`CC1=NN(c2nc(N)nc(C(C)Sc3cc(Cl)c(C)cc3S(N)(=O)=O)n2)C(C)(C)C1` (stereo unspecified): the GI50 in [1], in [2], in assay [3], in assay [4], in assay [5] and in [6] was > 10 µM (inactive) throughout. Moreover, the GI50 in assay [7] was > 10 µM (inactive); in assay [8], > 10 µM (inactive); in assay [9] it was > 10 µM (inactive); in assay [10], greater than 10 µM; in assay [18], > 10 µM (inactive); in assay [11], > 10 µM (inactive). Further, the GI50 in assay [12], in assay [13], in [14], in assay [19], in assay [20] and in assay [16] was > 10 µM (inactive) throughout. Further, the GI50 in assay [17] is > 10 µM (inactive).
